A value given as a limit tells only on which side of the number the result lay.

Data on 36 compounds can be found in ChEMBL document CHEMBL3785027 (Eur J Med Chem, 2016).

What all share (format): functional, cell-based
One experiment concerns A549. In words: Cytotoxicity against human A549 cells after 72 hrs by sulforhodamine B colorimetric assay. The settings on record: A549, 72 h. Background: In SRB staining, fixed cells bind dye roughly in proportion to their protein.
A further experiment has as its system KB. In words: Cytotoxicity against human KB cells after 72 hrs by sulforhodamine B colorimetric assay.
Experiment [1] is described as follows: Cytotoxicity against human KBVIN cells after 72 hrs by sulforhodamine B colorimetric assay.

One may read the IC50 as the point on the concentration scale where inhibition reaches its midpoint. The low end stands for higher potency, the high end for lower potency. Regarding `CC[C@@]1(OC(=O)CN/C(Cc2ccc(OC)cc2)=N/S(=O)(=O)c2ccc(C)cc2)C(=O)OCc2c1cc1n(c2=O)C(OC)c2cc3ccccc3nc2-1` (stereo partly specified), the IC50 in the experiment on A549 came out at 7.31 µM; with KB it was 7.56 µM; in experiment [1], 6.88 µM.
Compound `CC[C@@]1(OC(=O)CN/C(Cc2ccc(OC)cc2)=N/S(=O)(=O)c2ccc(C)cc2)C(=O)OCc2c1cc1n(c2=O)Cc2cc3ccccc3nc2-1` had an IC50 in experiment [1] of 0.0263 µM.
Consider `CC[C@@]1(OC(=O)CN/C(Cc2ccc(OC)cc2)=N/S(=O)(=O)c2ccc(C)cc2)C(=O)OCc2c1cc1n(c2=O)Cc2cc3cc(O)ccc3nc2-1`, for which the figures for the IC50 (in the experiment on A549; in the experiment on KB; in experiment [1]) were 0.064 µM, 0.0631 µM and 0.101 µM, respectively.
The corresponding values for `CC[C@@]1(OC(=O)CN/C(Cc2ccc(OC)cc2)=N/S(=O)(=O)c2cccs2)C(=O)OCc2c1cc1n(c2=O)Cc2cc3ccccc3nc2-1` are 0.0375 µM, 0.055 µM and 0.0325 µM.
For the compound `CCc1c2c(nc3ccccc13)-c1cc3c(c(=O)n1C2)COC(=O)[C@@]3(CC)OC(=O)CN/C(Cc1ccc(OC)cc1)=N/S(C)(=O)=O`, the IC50 amounted to 0.0198 µM in the experiment with A549, 0.0167 µM in the experiment with KB and 0.0258 µM in experiment [1].
Regarding `CCc1c2c(nc3ccccc13)-c1cc3c(c(=O)n1C2)COC(=O)[C@@]3(CC)OC(=O)CN/C(Cc1ccccc1)=N/S(=O)(=O)c1ccc(C)cc1`, the IC50 in the experiment on A549 was 0.0072 µM; with KB it was 0.0895 µM; in experiment [1] it was 0.0185 µM.
For `CC[C@@]1(OC(=O)CN/C(Cc2ccc(OC)cc2)=N/S(=O)(=O)c2ccc(F)cc2)C(=O)OCc2c1cc1n(c2=O)Cc2cc3ccccc3nc2-1` the same measures were 0.0141 µM, 0.0169 µM and 0.0225 µM.
The corresponding values for `CC[C@@]1(OC(=O)CN/C(Cc2ccc(OC)cc2)=N/S(=O)(=O)N(C)C)C(=O)OCc2c1cc1n(c2=O)Cc2cc3ccccc3nc2-1` are 0.0408 µM, 0.0665 µM and 0.0453 µM.
For `CC[C@@]1(OC(=O)CN/C(Cc2ccc(OC)cc2)=N/S(=O)(=O)c2cccnc2)C(=O)OCc2c1cc1n(c2=O)Cc2cc3ccccc3nc2-1` the same measures were 0.0765 µM, 0.0938 µM and 0.123 µM.
Turning to `CC[C@@]1(OC(=O)CN/C(Cc2ccc(OC)cc2)=N/S(=O)(=O)c2ccc(C)cc2)CC(=O)OCc2c1cc1n(c2=O)Cc2cc3ccccc3nc2-1`, the half-inhibitory concentration (IC50) in the experiment with A549 was found to be 0.0836 µM; in the experiment on KB, 0.232 µM; in experiment [1], 0.263 µM.
For `CC[C@@]1(OC(=O)CN/C(Cc2ccc(Cl)cc2)=N/S(=O)(=O)c2ccc(C)cc2)C(=O)OCc2c1cc1n(c2=O)Cc2cc3ccccc3nc2-1` the same measures were 0.0549 µM, 0.1 µM and 0.0648 µM.
For `CC[C@@]1(OC(=O)CN/C(Cc2ccc(OC)cc2)=N/S(=O)(=O)c2ccc(C)cc2)C(=O)OCc2c1cc1n(c2=O)Cc2cc3cccc([N+](=O)[O-])c3nc2-1` the same measures were 13.9 µM, 11.3 µM and 10.7 µM.
The corresponding values for `CCc1c(OP(=O)(O)OC)ccc2nc3c(cc12)Cn1c-3cc2c(c1=O)COC(=O)[C@@]2(CC)OC(=O)CN/C(Cc1ccc(OC)cc1)=N/S(=O)(=O)c1ccc(C)cc1` are 0.345 µM, 0.141 µM and 0.305 µM.
For `CC[C@@]1(OC(=O)CN/C(Cc2ccc(C)cc2)=N/S(=O)(=O)c2ccc(C)cc2)C(=O)OCc2c1cc1n(c2=O)Cc2cc3ccccc3nc2-1`, the half-maximal inhibitory concentration (IC50) turned out to be 0.0174 µM in the experiment on A549, 0.0739 µM with KB and 0.0275 µM in experiment [1].
The corresponding values for `CC[C@@]1(OC(=O)CN/C(Cc2ccc(OC)cc2)=N/S(=O)(=O)c2ccc(OC)cc2)C(=O)OCc2c1cc1n(c2=O)Cc2cc3ccccc3nc2-1` are 0.0319 µM, 0.0516 µM and 0.0222 µM.
For `CCc1c2c(nc3ccccc13)-c1cc3c(c(=O)n1C2)COC(=O)[C@@]3(CC)OC(=O)C(C)N/C(Cc1ccc(OC)cc1)=N/S(C)(=O)=O` (stereo partly specified) the same measures were 0.061 µM, 0.0952 µM and 0.0982 µM.
For `CCc1c2c(nc3ccccc13)-c1cc3c(c(=O)n1C2)COC(=O)[C@@]3(CC)OC(=O)C(C)N/C(Cc1ccccc1)=N/S(=O)(=O)c1ccc(C)cc1` (stereo partly specified) the same measures were 0.0102 µM, 0.0836 µM and 0.0195 µM.
For the compound `CC[C@@]1(OC(=O)CN/C(C[Si](C)(C)C)=N/S(=O)(=O)c2ccc(C)cc2)C(=O)OCc2c1cc1n(c2=O)Cc2cc3ccccc3nc2-1`, the figures for the IC50 (in the experiment on A549; in the experiment with KB; in experiment [1]) were 0.0302 µM, 0.0578 µM and 0.0399 µM, respectively.
The corresponding values for `CCc1c2c(nc3ccc(OC(=O)N4CCC(N5CCCCC5)CC4)cc13)-c1cc3c(c(=O)n1C2)COC(=O)[C@]3(O)CC` [IRINOTECAN] are 9.48 µM, 9.83 µM and over 20 µM.
For `CCc1c2c(nc3ccccc13)-c1cc3c(c(=O)n1C2)COC(=O)[C@@]3(CC)OC(=O)CN/C(Cc1ccc(OC)cc1)=N/S(=O)(=O)c1ccc(C)cc1` the same measures were 0.0068 µM, 0.0094 µM and 0.0101 µM.
The corresponding values for `CCc1c2c(nc3ccc(O)cc13)-c1cc3c(c(=O)n1C2)COC(=O)[C@@]3(CC)OC(=O)CN/C(Cc1ccc(OC)cc1)=N/S(=O)(=O)c1ccc(C)cc1` are 0.0218 µM, 0.0045 µM and 0.0282 µM.
Regarding `CC[C@@]1(OC(=O)C(C)N/C(Cc2ccc(OC)cc2)=N/S(=O)(=O)c2ccc(C)cc2)C(=O)OCc2c1cc1n(c2=S)Cc2cc3ccccc3nc2-1` (stereo partly specified), the 50% inhibitory concentration (IC50) in the experiment with A549 came out at 0.0869 µM; in the experiment with KB, 0.109 µM; in experiment [1], 0.151 µM.
The corresponding values for `CC[C@@]1(OC(=O)CN/C(Cc2ccc(OC)cc2)=N/S(=O)(=O)c2ccc3ccccc3c2)C(=O)OCc2c1cc1n(c2=O)Cc2cc3ccccc3nc2-1` are 0.0162 µM, 0.0687 µM and 0.0256 µM.
The corresponding values for `CCCCS(=O)(=O)/N=C(\Cc1ccc(OC)cc1)NCC(=O)O[C@]1(CC)C(=O)OCc2c1cc1n(c2=O)Cc2cc3ccccc3nc2-1` are 0.0349 µM, 0.0542 µM and 0.0435 µM.
Regarding `CC[C@@](O)(C(=O)NCCN/C(Cc1ccc(OC)cc1)=N/S(=O)(=O)c1ccc(C)cc1)c1cc2n(c(=O)c1COC(C)=O)Cc1cc3ccccc3nc1-2`, the IC50 with A549 is 0.688 µM; in the experiment on KB, 0.937 µM; in experiment [1], 0.947 µM.
The corresponding values for `CC[C@@]1(OC(=O)CN/C(Cc2ccccc2)=N/S(=O)(=O)c2ccc(C)cc2)C(=O)OCc2c1cc1n(c2=O)Cc2cc3c([N+](=O)[O-])cccc3nc2-1` are 8.27 µM, 9.05 µM and 9.13 µM.
`CC[C@@]1(OC(=O)CCCN/C(Cc2ccc(OC)cc2)=N\S(=O)(=O)c2ccc(C)cc2)C(=O)OCc2c1cc1n(c2=O)Cc2cc3ccccc3nc2-1`: the half-inhibitory concentration (IC50) stood at 0.448 µM with A549, 0.83 µM in the experiment on KB and 0.955 µM in experiment [1].
The corresponding values for `CC[C@@]1(OC(=O)CCN/C(Cc2ccc(OC)cc2)=N\S(=O)(=O)c2ccc(C)cc2)C(=O)OCc2c1cc1n(c2=O)Cc2cc3ccccc3nc2-1` are 0.0889 µM, 0.622 µM and 0.527 µM.
For `CC[C@@]1(OC(=O)CN/C(Cc2ccc(OC)cc2)=N/S(=O)(=O)c2ccc(C)cc2)C(=O)OCc2c1cc1n(c2=S)Cc2cc3ccccc3nc2-1` the same measures were 0.14 µM, 0.233 µM and 0.159 µM.
For `CC[C@@]1(OC(=O)CN/C(Cc2ccc(OC)cc2)=N/S(=O)(=O)c2ccc(Cl)cc2)C(=O)OCc2c1cc1n(c2=O)Cc2cc3ccccc3nc2-1` the same measures were 0.0165 µM, 0.073 µM and 0.0248 µM.
`CC[C@@]1(OC(=O)CN/C(Cc2ccc(OC)cc2)=N/S(=O)(=O)c2ccc([N+](=O)[O-])cc2)C(=O)OCc2c1cc1n(c2=O)Cc2cc3ccccc3nc2-1`: the IC50 (with A549; in the experiment with KB; in experiment [1]) was 0.0149 µM in each case.
`CC[C@@]1(OC(=O)CN/C(Cc2ccc(OC)cc2)=N/S(=O)(=O)CC)C(=O)OCc2c1cc1n(c2=O)Cc2cc3ccccc3nc2-1`: the half-maximal inhibitory concentration (IC50) in the experiment with A549 worked out at 0.0481 µM; in the experiment on KB, 0.0642 µM; in experiment [1], 0.0786 µM.
The corresponding values for `CCc1c2c(nc3ccccc13)-c1cc3c(c(=O)n1C2)COC(=O)[C@@]3(CC)OC(=O)C(C)N/C(Cc1ccc(Cl)cc1)=N/S(=O)(=O)c1ccc(C)cc1` (stereo partly specified) are 0.0129 µM, 0.0133 µM and 0.016 µM.
The corresponding values for `CCc1c2c(nc3ccccc13)-c1cc3c(c(=O)n1C2)COC(=O)[C@@]3(CC)OC(=O)C(C)N/C(Cc1ccc(OC)cc1)=N/S(=O)(=O)c1ccc(C)cc1` (stereo partly specified) are 0.016 µM, 0.0842 µM and 0.0227 µM.
As for `CC[C@@]1(OC(=O)CN/C(Cc2ccc(OC)cc2)=N/S(C)(=O)=O)C(=O)OCc2c1cc1n(c2=O)Cc2cc3ccccc3nc2-1`, the IC50 was found to be 0.054 µM with A549, 0.105 µM in the experiment with KB and 0.0635 µM in experiment [1].
With `CC[C@@]1(OC(=O)CN/C(Cc2ccc(OC)cc2)=N/S(=O)(=O)c2ccc(C)cc2)C(=O)OCc2c1cc1n(c2=O)Cc2cc3c([N+](=O)[O-])cccc3nc2-1`, the half-inhibitory concentration (IC50) is 6.27 µM with A549, 7.04 µM with KB and 4.58 µM in experiment [1].
